Test results as given in PubChem BioAssay (NCI).
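Tested at 5 concentrations; 48 h exposure; 96-well plates; endpoints linearly interpolated, else capped at highest concentration. TGI: concentration producing complete growth inhibition.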

What was measured:
Test in all cases: NCI anticancer screen, dose series, 48 h
786-0 renal = test system: 786-0 renal
A549 NSCLC = test system: A549 NSCLC
ACHN renal = test system: ACHN renal
CCRF-CEM leukemia = test system: CCRF-CEM leukemia
COLO 205 colon = test system: COLO 205 colon
DLD-1 colon = test system: DLD-1 colon
DMS 114 small cell lung = test system: DMS 114 small cell lung
DMS 273 small cell lung = test system: DMS 273 small cell lung
EKVX NSCLC = test system: EKVX NSCLC
HCC-2998 colon = test system: HCC-2998 colon
HCT-15 colon = test system: HCT-15 colon
HL-60(TB) leukemia = test system: HL-60(TB) leukemia
HOP-18 NSCLC = test system: HOP-18 NSCLC
HOP-92 NSCLC = test system: HOP-92 NSCLC
HT29 colon = test system: HT29 colon
IGROV1 ovarian = test system: IGROV1 ovarian
K-562 leukemia = test system: K-562 leukemia
KM12 colon = test system: KM12 colon
LXFL 529 NSCLC = test system: LXFL 529 NSCLC
M14 melanoma = test system: M14 melanoma
M19-MEL melanoma = test system: M19-MEL melanoma
MALME-3M melanoma = test system: MALME-3M melanoma
MOLT-4 leukemia = test system: MOLT-4 leukemia
NCI-H226 lung = test system: NCI-H226 lung
NCI-H23 lung = test system: NCI-H23 lung
NCI-H460 lung = test system: NCI-H460 lung
NCI-H522 lung = test system: NCI-H522 lung
OVCAR-3 ovarian = test system: OVCAR-3 ovarian
OVCAR-5 ovarian = test system: OVCAR-5 ovarian
OVCAR-8 ovarian = test system: OVCAR-8 ovarian
RPMI-8226 leukemia = test system: RPMI-8226 leukemia
RXF 393 renal = test system: RXF 393 renal
SF-268 CNS = test system: SF-268 CNS
SF-295 CNS = test system: SF-295 CNS
SF-539 CNS = test system: SF-539 CNS
SK-MEL-2 melanoma = test system: SK-MEL-2 melanoma
SK-MEL-28 melanoma = test system: SK-MEL-28 melanoma
SK-MEL-5 melanoma = test system: SK-MEL-5 melanoma
SK-OV-3 ovarian = test system: SK-OV-3 ovarian
SN12C renal = test system: SN12C renal
SNB-19 CNS = test system: SNB-19 CNS
SR leukemia = test system: SR leukemia
SW-620 colon = test system: SW-620 colon
TK-10 renal = test system: TK-10 renal
U251 CNS = test system: U251 CNS
UACC-257 melanoma = test system: UACC-257 melanoma
UO-31 renal = test system: UO-31 renal
XF 498 CNS = test system: XF 498 CNS
A498 renal = test system: A498 renal
CAKI-1 renal = test system: CAKI-1 renal
HCT-116 colon = test system: HCT-116 colon
HOP-62 NSCLC = test system: HOP-62 NSCLC
KM20L2 colon = test system: KM20L2 colon
LOX IMVI melanoma = test system: LOX IMVI melanoma
OVCAR-4 ovarian = test system: OVCAR-4 ovarian
SNB-75 CNS = test system: SNB-75 CNS
SNB-78 CNS = test system: SNB-78 CNS
UACC-62 melanoma = test system: UACC-62 melanoma

For O=C(O)C1=C(O)C(C(=O)O)C23CCCCCCCCCCC12C(C(=O)O)C(O)=C3C(=O)O (centres undefined), the TGI (786-0 renal) was over 100 µM, the TGI (A549 NSCLC) was over 100 µM and the TGI (ACHN renal) was over 100 µM. It also gave a TGI (CCRF-CEM leukemia) of over 100 µM, a TGI (COLO 205 colon) of over 100 µM and a TGI (DLD-1 colon) of over 100 µM. The TGI (DMS 114 small cell lung) was over 100 µM, the TGI (DMS 273 small cell lung) was over 100 µM and the TGI (EKVX NSCLC) was over 100 µM. It also gave a TGI (HCC-2998 colon) of over 100 µM, a TGI (HCT-15 colon) of over 100 µM and a TGI (HL-60(TB) leukemia) of over 100 µM. The TGI (HOP-18 NSCLC) was over 100 µM, the TGI (HOP-92 NSCLC) was over 100 µM and the TGI (HT29 colon) was over 100 µM. The TGI (IGROV1 ovarian) was over 100 µM, the TGI (K-562 leukemia) was over 100 µM and the TGI (KM12 colon) was over 100 µM. It also gave a TGI (LXFL 529 NSCLC) of over 100 µM, a TGI (M14 melanoma) of over 100 µM and a TGI (M19-MEL melanoma) of over 100 µM. For the same molecule, the TGI (MALME-3M melanoma) was over 100 µM, the TGI (MOLT-4 leukemia) was over 100 µM and the TGI (NCI-H226 lung) was over 100 µM. The TGI (NCI-H23 lung) was over 100 µM, the TGI (NCI-H460 lung) was over 100 µM and the TGI (NCI-H522 lung) was over 100 µM. For the same molecule, the TGI (OVCAR-3 ovarian) was over 100 µM, the TGI (OVCAR-5 ovarian) was over 100 µM and the TGI (OVCAR-8 ovarian) was over 100 µM. For the same molecule, the TGI (RPMI-8226 leukemia) was over 100 µM, the TGI (RXF 393 renal) was over 100 µM and the TGI (SF-268 CNS) was over 100 µM. It also gave a TGI (SF-295 CNS) of over 100 µM, a TGI (SF-539 CNS) of over 100 µM and a TGI (SK-MEL-2 melanoma) of over 100 µM. The TGI (SK-MEL-28 melanoma) was over 100 µM, the TGI (SK-MEL-5 melanoma) was over 100 µM and the TGI (SK-OV-3 ovarian) was over 100 µM. For the same molecule, the TGI (SN12C renal) was over 100 µM, the TGI (SNB-19 CNS) was over 100 µM and the TGI (SR leukemia) was over 100 µM. The TGI (SW-620 colon) was over 100 µM, the TGI (TK-10 renal) was over 100 µM and the TGI (U251 CNS) was over 100 µM. It also gave a TGI (UACC-257 melanoma) of over 100 µM, a TGI (UO-31 renal) of over 100 µM and a TGI (XF 498 CNS) of over 100 µM.
Work on CC(C)=CC1C[C@H](C2CC=C3C2(C)CCC2[C@@]3(C)C(=O)CC3[C@]2(C)C=CC(=O)[C@]3(C)CO)CO1 (some centres undefined) yielded a TGI (786-0 renal) of 15.7 µM, a TGI (A498 renal) of 23.2 µM and a TGI (A549 NSCLC) of 52.4 µM. It also gave a TGI (ACHN renal) of 30.7 µM, a TGI (CAKI-1 renal) of 49 µM and a TGI (CCRF-CEM leukemia) of 8.71 µM. The TGI (COLO 205 colon) was 27.2 µM, the TGI (DMS 114 small cell lung) was 15.9 µM and the TGI (DMS 273 small cell lung) was 18.4 µM. The TGI (EKVX NSCLC) was 55.1 µM, the TGI (HCC-2998 colon) was 30 µM and the TGI (HCT-116 colon) was 10.2 µM. The TGI (HCT-15 colon) was 40.5 µM, the TGI (HL-60(TB) leukemia) was 9.42 µM and the TGI (HOP-18 NSCLC) was 30.1 µM. For the same molecule, the TGI (HOP-62 NSCLC) was 30.6 µM, the TGI (HOP-92 NSCLC) was 41.3 µM and the TGI (HT29 colon) was 18.2 µM. For the same molecule, the TGI (IGROV1 ovarian) was 29.5 µM, the TGI (K-562 leukemia) was 31.3 µM and the TGI (KM12 colon) was 19.9 µM. It also gave a TGI (KM20L2 colon) of 19.1 µM, a TGI (LOX IMVI melanoma) of 9.45 µM and a TGI (LXFL 529 NSCLC) of 12.1 µM. The TGI (M14 melanoma) was 12.1 µM, the TGI (M19-MEL melanoma) was 16.7 µM and the TGI (MALME-3M melanoma) was 16.8 µM. The TGI (MOLT-4 leukemia) was 8.43 µM, the TGI (NCI-H23 lung) was 19.1 µM and the TGI (NCI-H460 lung) was 25.4 µM. The TGI (NCI-H522 lung) was 8.71 µM, the TGI (OVCAR-3 ovarian) was 13.2 µM and the TGI (OVCAR-4 ovarian) was 41.3 µM. For the same molecule, the TGI (OVCAR-5 ovarian) was 37.8 µM, the TGI (OVCAR-8 ovarian) was over 24.4 µM and the TGI (RPMI-8226 leukemia) was 15.3 µM. It also gave a TGI (RXF 393 renal) of 23.2 µM, a TGI (SF-268 CNS) of 23.1 µM and a TGI (SF-295 CNS) of 32.1 µM. It also gave a TGI (SF-539 CNS) of 11.9 µM, a TGI (SK-MEL-2 melanoma) of 14.8 µM and a TGI (SK-MEL-28 melanoma) of 19 µM. It also gave a TGI (SK-MEL-5 melanoma) of 25 µM, a TGI (SK-OV-3 ovarian) of 39.6 µM and a TGI (SN12C renal) of 63.2 µM. For the same molecule, the TGI (SNB-19 CNS) was 42.9 µM, the TGI (SNB-75 CNS) was 23.1 µM and the TGI (SNB-78 CNS) was 48.4 µM. The TGI (SR leukemia) was 10.8 µM, the TGI (SW-620 colon) was over 31.7 µM and the TGI (TK-10 renal) was 52.4 µM. For the same molecule, the TGI (U251 CNS) was 21.7 µM, the TGI (UACC-257 melanoma) was 30.8 µM and the TGI (UACC-62 melanoma) was 31 µM. For the same molecule, the TGI (UO-31 renal) was 33.1 µM and the TGI (XF 498 CNS) was 12.9 µM.
